Data on two molecules can be found in patent US20220236187A1, “SYSTEM AND METHOD FOR REAL-TIME MULTICOLOR SHORTWAVE INFRARED FLUORESCENCE IMAGING” (HELMHOLTZ ZENTRUM MÜNCHEN - DEUTSCHES FORSCHUNGSZENTRUM FÜR …, priority 2019, published 2022).

A short description of data set [1]: Brightness comparison in organic solvent in the excitation-multiplexed SWIR imaging configuration. It counts as physicochemical. The conditions noted are these: 0.25 μM, 785/892/968 nm excitation, 1000 nm LP. The text has this: While photophysical characterization can be essential for understanding chromophore properties, when moving to an in vivo system, there are many additional parameters that might contribute to a dye's performance, including delivery strategy, interaction with biological tissues, and the excitation and detection parameters of the imaging configuration. To begin to understand the translation to in vivo experiments, an excitation-multiplexed SWIR imaging configuration was used to compare emission of the fluorophores when excited at relevant wavelengths. The imaging set-up includes excitation lasers that correspond to each channel (e.g., i-iv, FIG. 17a) (785, 892, and 968, 1065 nm) with irradiation scaled to the approved values, as outlined by the International Commission on Non-Ionizing Radiation Protection (ICNIRP) guidelines. The guidelines indicate that within the spectral region of interest (˜785 nm-1065 nm) higher photon doses are tolerated as the wavelength is increased. […] The excitation lasers are diffused and delivered uniformly to the biological sample. […]
To compare brightness of the chromenylium dyes in vitro, dyes 5, 6, 9 and 10 were dissolved in organic solvent (DCM) at 0.25 μM, and measured the emission, with 1000 nm longpass (LP) filtering on an InGaAs camera upon sequential excitation with 785, 892, and 968 nm lasers. […]

The nature of data set [2]: In vivo brightness comparison of JuloChrom5 (10) and ICG in a single mouse. Further details: species or system mice. The note with it: compared to the PEG-coated micelles. From the text: (§1) FIG. 21: Brightness comparisons in imaging configuration. a-c) Images upon 785 (33 mWcm^−2), 892 (54 mWcm^−2), and 968 (77 mWcm^−2) nm ex. and LP1000 nm detection (variable exposure time (ET) and frame rate) of capillaries containing equal moles of dyes 4-6, 9, 10 (lipid formulations) and benchmark dyes ICG (free) and MeOFlav7 (abbreviated MF7) (lipid formulation) when dissolved in water (a), fetal bovine serum (FBS) (b), or sheep blood (c). […] (e) and after injection of JuloChrom5 (10) (50 nmol) upon 982 nm (104 mWcm^−2) ex. (f). Collect: LP1000 nm, 2.0 ms ET, 150 fps (for 2-channel collection, see SI for images from all channels).
To most closely assess the brightness performance for SWIR imaging, an in vivo comparative experiment between the highest performing chromenylium dye, JuloChrom5 (10) and ICG was designed. To note, while many SWIR imaging agents have been compared to the benchmark dye, ICG, these comparisons are often difficult due to the diverse photophysical and biological properties of different emitters. In this case, the in vivo comparison is complicated by differing biodistribution properties of the two dyes. […] Normalizing each acquisition to the injection start time, the signal over time over the whole mouse (yellow), a section of the vasculature (red), and the liver (black) were quantified. […]

A short description of data set [3]: Two-color SWIR lymphatic imaging of a narcotized mouse (Example 2, Demonstration III). Type of data set: in vivo. The conditions noted are these: injected intradermally into footpads and base of tail; after 30 min, 40 min. The text has this:
The FIGS. 9A, 9B and 9C show merged frames representing the lymphatic system of a narcotized mouse in two-color real-time acquisition. With detector exposure time of 20 ms, a frame rate of 21 fps is achieved with the developed system. […] Then, Julo 7 micelles have been injected intravenously. The lymphatic functional imaging is later enhanced by the assignment of two distinct colors.
Light Source (785 nm laser & 1064 nm laser sequentially triggered, pulse length=21 ms)→Collimator→Mirror→1100 nm Short-pass Filter→Engineered Diffuser→Sample. The arrows represent the light path. Accordingly, the light path has been set up as follows: from Light Source (785 nm laser & 1064 nm laser sequentially triggered, pulse length=21 ms) to Collimator to Mirror to 1100 nm Short-pass Filter to Engineered Diffuser to Sample.
Sample→3xf=500 mm C-Coated lenses→Silver Mirror→1000 nm Long-pass Filter→2xf=200 mm C-coated lenses→InGaAs Detector. The arrows represent the light path. Accordingly, the light path has been set up as follows: from Sample to 3xf=500 mm C-Coated lenses to Silver Mirror to 1000 nm Long-pass Filter to 2xf=200 mm C-coated lenses to InGaAs Detector.
Sample: ICG (aqueous, 13 nmol intradermally [footpads and base of tail]) and Julo7 (micelles, 70 nmol intravenously).

Data set [4] is described as follows: Brightness comparison of micelle-formulated dyes and ICG in water, fetal bovine serum and sheep blood. Type of data set: physicochemical. The conditions noted are these: dyes in micelles, ICG free.
From the text: as §1
Next, to more closely approximate in vivo performance, each chromenylium or flavylium dye were formulated into water-soluble PEG-phospholipid micelles, a biocompatible nanomaterial for delivery. Brightness of solutions with equal dye concentration (flavylium and chromenylium dyes in micelles; ICG) were evaluated when dispersed in water (e.g., FIG. 20a), fetal bovine serum (FBS) (e.g., FIG. 20b), and sheep blood (e.g., FIG. 20c).
Results changed drastically compared to those in the organic solvent experiment, likely due to variable amounts of aggregation or interactions within the micelles and/or biological media. […]

Data set [5] is described as follows: Excitation-multiplexed SWIR imaging in mice, probe distribution (Example 9). It counts as in vivo. The conditions noted are these: 80 minutes after i.p. 10 micelles and i.v. 3 micelles and ICG; top view. From the text: To perform excitation multiplexing in the SWIR, a custom SWIR imaging configuration with three lasers and an InGaAs detector was built (FIG. 13B). With laser lines at 785 nm, 980 nm, and 1064 nm, tailored excitation could uniquely excite three fluorophores. Emission is detected in a color-blind fashion using identical filters and settings in the SWIR, providing high-resolution images. To enable this process to occur in real-time, we constructed an electronic triggering system which is coupled to both the camera and laser excitation sources. […]
Physiological properties such as heart-rate, respiratory rate, thermoregulation, metabolism, and the function of the central nervous system, are highly impacted by anesthesia. […] Due to frame rates which are faster than macroscopic movements in animals, the heart rate and respiratory rate in awake animals can be quantified. […] The method allows physiology to be monitored with minimal perturbation of the animal's usual environment. […] The real-time collection can be visualized by observing close time-points in which a continuous movement is monitored without visual aberrations (FIG. 16A). In addition to assessing natural physiology, these tools foreshadow more complex experiments in which the location of multiple probes could be monitored over long periods of time, non-invasively and without the need for anesthesia. […]

The conditions of data set [6]: stated as established property; cited from earlier work.
The conditions of data set [7]: value used as reference for relative measurements; cited from earlier work.
For data set [8] the following is noted: value used as reference for relative measurements; cited from earlier work. The source holds these as a separate data set.

Like-named read-outs stand apart in the source and are kept apart here.

As to `CC1(C)C(/C=C/C=C/C=C/C=C2\N(CCCCS(=O)(=O)O)c3ccc4ccccc4c3C2(C)C)=[N+](CCCCS(=O)(=O)[O-])c2ccc3ccccc3c21` [ICG, indocyanine green], in data set [1], the “ranking of SWIR emission per excitation channel” value was “best performers in channels i and ii”. Further, in data set [2], the hepatic clearance time entry was “faster hepatic clearance time”. Further, in data set [3], the “conduction through the lymphatic vessels” value was “efficiently conducted through the lymphatic vessels”. Also, the “change of brightness in FBS and blood compared to water” value in data set [4] was “increase in brightness”. Also, the “SWIR brightness in water, FBS and blood” value in data set [4] (equal dye concentration) is “brightest SWIR emitter upon 785 nm excitation in both FBS and blood”. In addition, the “location of probe in awake mouse” value in data set [5] is given as “exclusively in the liver”. For the same molecule, the “clearance of ICG” value in data set [6] is “clears efficiently and exclusively from the liver”.
Turning to `ClC1=C(/C=C/c2cc(-c3ccccc3)[s+]c3ccccc23)CCC/C1=C\C=C1/C=C(c2ccccc2)Sc2ccccc21.[O-][Cl+3]([O-])([O-])[O-]` [IR-26], the “ΦF of reference standard IR-26” value in data set [7] and in data set [8] was 0.05% in each case.
